18 molecules from US7504538B2, “Amide or thioamide derivatives and their use in the treatment of pain” (Cara Therapeutics, Inc., priority 2003, dated 2009) can be followed below.

The Ki is a measure of affinity in units of concentration, obtained from inhibition or displacement.

The test system of test [1] is rats. Nature of the test: Formalin flinch test (inflammatory pain). It is filed as in vivo. The following applies: rat; for A50 Formalin Phase II: inflammatory phase (10-60 min); for A50 Formalin Phase I: tonic phase (first 10 min). The source says: (§1) The biological assays used were essentially set up as described in Munro, S., Thomas, K. L., Abu-Shaar, M. in “Molecular characterisation of a peripheral receptor for cannabinoids” Nature 365:61-65 (1993) and Kim, S. H. and Chung, J. M. in “An experimental model for peripheral neuropathy produced by segmental spinal nerve ligation in the rat” Pain 50:355-363 (1992).
(§2) Inflammatory (Formalin flinch test) and chronic pain (L5/L6 nerve ligation injury) models were used as assays in both rats and mice.
Animals are habituated to the their local environment for about 30 min prior to testing. The formalin test is carried out in a 30×30×30 cm chamber with the front and bottom of the chambers made of clear plexiglass. Mirrors are placed at a 45° angle under the chambers in order to have an un-obstructive view of the paws. Animals are restrained manually and 2% formalin (aq) is injected subcutaneously into the planar surface of the left paw with a 30 gauge needle. The numbers of paw flinches are then recorded in 5 min intervals from the time of injection for a 60 min period. Elevations of the paw, licking and biting of the injected paw were counted as “flinches”. The tonic or “first phase” of the nociceptive response peaked at 5 min after formalin injection and the inflammatory or “second phase” peaked at 30 min after formalin injection. The number of flinches in the first 10 min were representative of the tonic phase and the number of flinches from 10 min until 60 min were representative of the inflammatory phase. Antinociception for both phase I and phase II was calculated as follows: % antinociception=100×(# of flinches in control animal−# of flinches in drug treated animal)/(# of flinches in control animal)
Potency (A50) is calculated from the full dose response curve for both phase I and phase II.

The target of another test is T1, hCB2-R (Homo sapiens, UniProt P34972).
T1 construct: expressed in transfected cells; membranes
In words: CB2 ligand binding assay ([3H]-CP55940 displacement, CHO-K1 membranes). As to conditions: 0.3-0.5 nM [3H]-CP55940, CB2 membranes, 2 h at 30° C.; read-out: Binding constants (Ki) to hCB2-R.
From the text: as §1
Monoclonal HEK cell lines with stable expression of the human CB1 receptor and CHO-K1 cell lines with stable expression of hCB2-R were established. The CB binding assays were performed with membranes prepared from these cell lines. The CB2 ligand binding mixture contains 0.3-0.5 nM [^3H]-CP55940, 7 μg of CB2 membranes and the test compounds in a concentration range of from 1.0×10^−4 to 1.0×10^−12 M. The assay buffer comprises 50 mM Tris-HCl (pH 7.4), 5 MM MgCl2, 2.5 mM EDTA and 5 mg/ml fatty acid-free bovine serum albumin. The binding mixtures are incubated for 2 h at 30° C. and terminated by rapid filtration (Brandel 96 well cell harvester) over 934AH filters (Whatman) followed by 6 washes with ice-cold binding buffer. The filters are dried and [^3H]-CP55940 bound radioactivity is determined by liquid scintillation counting. Non-specific binding is determined in the presence of 10 μM CP55940. The binding data is analysed with the program GraphPad Prism (provided by GraphPad Software, San Diego, Calif., USA).

In test [2] the test system is rats. Nature of the test: L5/L6 nerve ligation injury, tactile allodynia (von Frey). Type of test: in vivo. The following applies: rat.
From the text: as §1, §2
Nerve ligation injury was performed according to the method described previously (Kim and Chung). This methodology produces signs of tactile allodynia and thermal hyperalgesia. Rats were anesthetized with halothane and the L5 and L6 spinal nerves were exposed, carefully isolated, and tightly ligated with 4-0 silk suture distal to the dorsal root ganglia (DRG). After ensuring homeostatic stability the wounds were sutured, and the animals were allowed to recover in individual cages. Sham-operated rats were prepared in an identical fashion except that the L5 and L6 spinal nerves were not ligated. Compound 17 was tested in rats after L5/L6 nerve ligation. […]
In the evaluation of the tactile allodynia, the paw withdrawal threshold was determined in response to probing with calibrated von Frey filaments. […] The 50% paw withdrawal threshold was determined by the nonparametric method. […]

Test [3] has as its system rats. In words: L5/L6 nerve ligation injury, thermal hyperalgesia. It is filed as in vivo. As to conditions: rat.
From the text: as §1, §2
Nerve ligation injury was performed according to the method described previously (Kim and Chung). This methodology produces signs of tactile allodynia and thermal hyperalgesia. Rats were anesthetized with halothane and the L5 and L6 spinal nerves were exposed, carefully isolated, and tightly ligated with 4-0 silk suture distal to the dorsal root ganglia (DRG). After ensuring homeostatic stability the wounds were sutured, and the animals were allowed to recover in individual cages. Sham-operated rats were prepared in an identical fashion except that the L5 and L6 spinal nerves were not ligated. Compound 17 was tested in rats after L5/L6 nerve ligation. Compound administration was directly into the hind paw (i.paw) or into the peritoneal cavity (i.p.).

T1 sequence (P34972 whole entry): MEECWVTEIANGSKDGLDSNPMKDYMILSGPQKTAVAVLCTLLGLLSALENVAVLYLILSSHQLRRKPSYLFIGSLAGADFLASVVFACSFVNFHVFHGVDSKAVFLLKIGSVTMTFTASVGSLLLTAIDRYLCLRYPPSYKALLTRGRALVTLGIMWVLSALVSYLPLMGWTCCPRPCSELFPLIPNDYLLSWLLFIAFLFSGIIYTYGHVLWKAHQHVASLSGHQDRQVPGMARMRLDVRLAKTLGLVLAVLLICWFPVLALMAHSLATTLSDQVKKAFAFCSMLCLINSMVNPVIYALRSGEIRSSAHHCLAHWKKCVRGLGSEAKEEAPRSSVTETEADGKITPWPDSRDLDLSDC

For the molecule `Cc1c(C(=O)c2cccc3ccccc23)c2cccc3c2n1[C@H](CN1CCOCC1)CO3` [WIN-55, 212-2, reference compound], in the test with rats [1] (i. paw), the “A50 Formalin Phase II” value turned out to be 25 mg/paw and the “A50 Formalin Phase I” value turned out to be 12 mg/paw.

With `NC(=O)CCCN(CCCC1CCCCC1)C(=O)Cc1ccc2ccccc2c1` [Compound 8, 4-[(3-cyclohexylpropyl)-(2-naphthalen-2-yl-acetyl)amino]-butyramide], on hCB2-R, the inhibition constant Ki is 2700 nM.

Regarding `NC(=O)[C@@H]1CCCC[C@H]1N(CCCC1CCCCC1)C(=O)Nc1ccccc1` (relative stereo) [Compound 7, trans-2-[1-(3-cyclohexylpropyl)-3-phenylureido]cyclo-hexanecarboxamide], the Ki at hCB2-R was 1500 nM.

For the molecule `CCCCc1ccc(CN(CCCC(N)=O)C(=O)Nc2ccccc2)cc1` [Compound 3, 4-[1-(4-butylbenzyl)-3-phenylureido]butyramide], on hCB2-R, the Ki stood at 120 nM.

As to `NC(=O)CCCN(CCC1CCCCC1)C(=O)Nc1ccccc1` [Compound 12, 4-[1-(2-cyclohexylethyl)-3-phenylureido]butyramide], the Ki on hCB2-R was determined as 410 nM.

As to `NC(=O)CCCN(CCc1ccc2ccccc2c1)C(=O)Nc1ccccc1` [Compound 11, 4-[1-(2-naphthalen-2-yl-ethyl)-3-phenylureido]butyr-amide], the inhibitory constant (Ki) on hCB2-R came out at 770 nM.

As for `NC(=O)CCCN(CCc1ccccc1)C(=O)Nc1ccccc1` [Compound 13, 4-(1-phenethyl-3-phenylureido)butyramide], the inhibitory constant (Ki) at hCB2-R was found to be 450 nM.

Take `NC(=O)CCCN(CCCC1CCCCC1)C(=O)Nc1ccc2ccccc2c1` [Compound 10, 4-[1-(3-cyclohexylpropyl)-3-naphthalen-2-yl-ureido]-butyramide]: the Ki at hCB2-R amounted to 1000 nM.

Take `NC(=O)CCCN(Cc1ccccc1)C(=O)Nc1ccccc1` [Compound 14, 4-(1-benzyl-3-phenylureido)butyramide]: the Ki on hCB2-R is 840 nM.

Regarding `CC(C)CCCN(CCCC(N)=O)C(=O)Nc1ccccc1` [Compound 5, 4-[1-(4-methylpentyl)-3-phenylureido]butyramide], on hCB2-R, the Ki is 1100 nM.

Take `C[C@@H](C(=O)N(CCCC(N)=O)CCCC1CCCCC1)c1ccccc1` [Compound 1, (R)-4-[(3-cyclohexylpropyl)-(2-phenylpropionyl)amino]-butyramide]: the Ki at hCB2-R was 2900 nM.

With `NC(=O)CCCN(CCCC1CCCCC1)C(=O)Nc1ccccc1` [Compound 17, 4-[1-(3-cyclohexylpropyl)-3-phenylureido]butyramide], on hCB2-R, the Ki is 110 nM. In addition, in the test on rats [1] (i. paw), the “A50 Formalin Phase II” value was found to be 28 mg/paw and the “A50 Formalin Phase I” value is under 10 mg/paw. Further, in the test with rats [1] (i.p.), the “A50 Formalin Phase II” value is 0.01 mg/kg and the “A50 Formalin Phase I” value was under 0.01 mg/kg. The molecule also registered an antiallodynic effect with rats [2] (L5/L6 nerve ligation, 100 μg (in 50 μl) into the paw) of 90%. For the same molecule, the “A50 L5/L6 anti-allodynia” value with rats [2] (i. paw) is reported as under 30 mg/paw. The “antihyperalgesic response to the thermal testing” value in the test on rats [3] (L5/L6 spinal nerve ligation, 30 μg (in 50 μl) into the paw) was 100%. Also, in the test with rats [3] (i. paw), the “A50 L5/L6 anti-hyperalgesia” value is listed as under 30 mg/paw.

In the case of `NC(=O)CCCN(CCCC1CCCC1)C(=O)Nc1ccccc1` [Compound 15, 4-[1-(3-cyclopentylpropyl)-3-phenylureido]butyr-amide], the Ki at hCB2-R came out at 210 nM.

As to `NC(=O)CCCCCCCN(CCCC1CCCCC1)C(=O)Cc1ccc2ccccc2c1` [Compound 9, 8-[(3-cyclohexylpropyl)-(2-naphthalen-2-yl-acetyl)amino]-octanamide], the inhibition constant (Ki) on hCB2-R turned out to be 15000 nM.

On to `NC(=O)CCCN(CCCCCCc1ccccc1)C(=O)Nc1ccccc1` [Compound 2, 4-[3-phenyl-1-(6-phenylhexyl)ureido]butyramide], for which, at hCB2-R, the inhibition constant (Ki) stood at 450 nM.

As for `CC(C)c1ccc(CN(CCCC(N)=O)C(=O)Nc2ccccc2)cc1` [Compound 4, 4-[1-(4-isopropylbenzyl)-3-phenylureido]butyramide], the inhibition constant Ki at hCB2-R worked out at 780 nM.

Take `O=C(CCCN(CCCC1CCCCC1)C(=O)Nc1ccccc1)NCc1ccc(Cl)cc1` [Compound 6, N-(4-chlorobenzyl)-4-[1-(3-cyclohexylpropyl)-3-phenyl-ureido]butyramide]: the Ki at hCB2-R was 2200 nM.

Turning to `NC(=O)CCCN(CCCCCc1ccccc1)C(=O)Nc1ccccc1` [Compound 16, 4-[3-phenyl-1-(5-phenylpentyl)ureido]butyramide], the Ki on hCB2-R stood at 130 nM.
